From ChEMBL document CHEMBL5726691, “Carboxylic acid compound, method for preparation thereof, and use thereof” (2018)
pIC50: −log10 of the molar value.

Target: T1, Solute carrier family 22 member 12 (Homo sapiens, UniProt Q96S37)
T1 sequence (Q96S37 whole entry): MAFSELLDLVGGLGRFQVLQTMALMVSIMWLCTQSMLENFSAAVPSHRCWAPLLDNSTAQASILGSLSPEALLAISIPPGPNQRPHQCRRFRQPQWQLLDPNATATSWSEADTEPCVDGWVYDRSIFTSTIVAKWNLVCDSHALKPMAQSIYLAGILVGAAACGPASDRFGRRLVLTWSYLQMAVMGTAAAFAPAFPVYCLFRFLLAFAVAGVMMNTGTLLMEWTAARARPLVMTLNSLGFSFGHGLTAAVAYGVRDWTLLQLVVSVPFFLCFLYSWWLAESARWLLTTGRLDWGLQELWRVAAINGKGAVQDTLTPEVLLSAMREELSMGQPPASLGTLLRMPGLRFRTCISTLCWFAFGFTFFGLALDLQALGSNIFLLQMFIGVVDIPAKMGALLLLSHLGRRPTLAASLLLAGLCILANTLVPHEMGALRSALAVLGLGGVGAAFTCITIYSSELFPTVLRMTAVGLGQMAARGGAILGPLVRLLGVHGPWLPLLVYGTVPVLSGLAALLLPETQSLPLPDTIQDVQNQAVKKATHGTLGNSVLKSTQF
Experiment: 150 microliter of cell lysate (100 mM of NaOH) was added in each well. Cell plate was placed on a vibrating plate and vibrated for 10 min at a speed of 600 rpm such that the cells were completely lysed. The cell plate was put in a centrifuge and spun for 5 min at a speed of 1000 rpm, then 45 microliter of supernatant was sucked out from each well and transferred to 96-well plate (Isoplate-96 Microplate from PerkinElmer).

SMILES: N#Cc1ccc(-c2ccccc2S(=O)(=O)CC2(CC(=O)O)CC2)cc1
- pIC50: < 6.00
